Results reported in article PMC8219695 (Nature Communications, 2021).
“And” between values parts separate entries of the source, which are not always exact repeats. Equal values may be shown once.

Experiments:
mDOR [1] = biological target: T1, mDOR (Mus musculus, UniProt P32300); experiment: CAMYEL BRET cAMP agonist assay at mDOR; format: cell-based; settings: for Agonist activity of 7OH analogs at mDOR: single replicate values, Supplementary Figure 7B
T1 construct: expressed in transfected cells

CD1 mice = experiment: Tail-flick antinociception in CD1 mice; format: in vivo, mouse; settings: 5 or 25 mg/kg s.c., CD1 mice, time course
mMOR [2] = biological target: T2, mMOR (Mus musculus, UniProt P42866); experiment: CAMYEL BRET cAMP agonist assay at mMOR; format: cell-based; settings: mMOR; for cAMP %: single replicates, source data Fig 6b, listed as C11-Cl-7OH (23)
T2 construct: signal peptide (heterologous, not specified) (N); expressed in transfected cells; pcDNA3.1(+) construct made in house

mKOR = biological target: T3, mKOR (Mus musculus, UniProt P33534); experiment: [125I]BNtxA radioligand competition binding, mouse KOR; settings: mean ± SEM, n = 3; [125I]BNtxA; read-out: Ki ± SEM mKOR
T3 construct: expressed in transfected cells; membranes

mMOR [3] = biological target: T2, mMOR; experiment: CAMYEL BRET antagonism assay at mMOR (inhibition of DAMGO); format: cell-based; settings: for Antagonist activity at mMOR, raw signal (single replicate values): source data of Fig 8a and Table 5, listed as C11-Cl-7OH (23);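 on Antagonist activity at mMOR, raw signal (single replicate values): BRET signal rises as cAMP falls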
mDOR [4] = biological target: T1, mDOR; experiment: [125I]BNtxA radioligand competition binding, mouse DOR; settings: mean ± SEM, n = 3; [125I]BNtxA; read-out: Ki ± SEM mDOR
hMOR = biological target: T4, hMOR (Homo sapiens, UniProt P35372); experiment: cell-based
T4 construct: expressed in transfected cells; plasmid a gift from Dr. Nevin Lambert

hKOR = hKOR (Homo sapiens, UniProt P41145); experiment: CAMYEL BRET cAMP agonist assay at hKOR; format: cell-based; settings: individual replicates, Supplementary Figure 8A source data

## CC[C@@H]1CN2CC[C@@]3(O)C(=Nc4cc(Cl)cc(OC)c43)[C@@H]2C[C@@H]1/C(=C\OC)C(=O)OC [11-Cl-7OH (23), 11-Cl-7OH]
mDOR [1]; Log[drug] (M) -5
  Agonist activity of 7OH analogs at mDOR: 26.1167 and 29.2367 and 36.3699 and 32.2405 and 24.7678 and 31.8502 and 20.8066 and 14.4196
mDOR [1]; Log[drug] (M) -6
  Agonist activity of 7OH analogs at mDOR: 24.5815 and 25.9676 and 37.4358 and 15.5242 and 17.7522 and 18.5933 and 15.1392 and 2.291 and 7.306
mDOR [1]; Log[drug] (M) -7
  Agonist activity of 7OH analogs at mDOR: 31.8669 and 29.4684 and 27.3279 and 35.1303 and 15.7738 and 14.2288 and -2.321 and 1.192 and 1.129
mDOR [1]; Log[drug] (M) -8
  Agonist activity of 7OH analogs at mDOR: 24.8631 and 32.1589 and 37.1926 and 12.9562 and 15.2093 and 7.166 and 10.5442 and -9.446 and 11.0136
mDOR [1]; Log[drug] (M) -9
  Agonist activity of 7OH analogs at mDOR: 33.463 and 29.5442 and 24.9953 and 13.5309 and 13.5578 and 8.893 and 29.4233
mDOR [1]; Log[drug] (M) -10
  Agonist activity of 7OH analogs at mDOR: 24.7821 and 18.2952 and 15.7891 and -5.277 and 4.222 and 6.7221 and 13.4439 and 1.454 and 8.443
mDOR [1]; Log[drug] (M) -11
  Agonist activity of 7OH analogs at mDOR: 28.0105 and 19.9828 and 19.4476 and 11.3847 and -1.66 and -5.157 and 5.226 and 0.03212 and 8.89
mDOR [1]; Log[drug] (M) -13
  Agonist activity of 7OH analogs at mDOR: -1.931 and 4.676 and 0.1543 and -4.31 and 4.156 and 0.5113 and 7.987 and 3.883
mDOR [1]; mDOR cAMP BRET, positive control DPDPE
  Emax: very low efficacy
CD1 mice
  analgesic effect in tail-flick: no analgesic effect
mMOR [2]; Log[drug] (M) -5
  cAMP %: 6.435% and 6.384% and 16.5545% and 12.4027% and 11.5958% and 9.171% and 11.6377% and 17.8045% and 15.1324%
mMOR [2]; Log[drug] (M) -6
  cAMP %: 18.6614% and 4.689% and 11.9914% and 8.341% and 7.121% and 7.194% and 11.7839% and 2.54% and 3.967%
mMOR [2]; Log[drug] (M) -7
  cAMP %: 11.7629% and -2.4507% and 10.3244% and 12.5872% and 11.439% and 4.6796% and 1.65% and 1.082% and 0.9258%
mMOR [2]; Log[drug] (M) -8
  cAMP %: -5.129% and 6.21% and -1.081% and 7.275% and 2.298% and 9.574% and 9.25% and -4.751% and 0.6222%
mMOR [2]; Log[drug] (M) -9
  cAMP %: 2.051% and -8.733% and 10.4525% and -1.843% and 3.825% and 12.7464% and 9.611% and 1.736% and 14.7967%
mMOR [2]; Log[drug] (M) -10
  cAMP %: -1.957% and 12.894% and -4.791% and 0.07219% and 0.3304% and -0.4025% and -1.324% and -2.101% and 5.511%
mMOR [2]; Log[drug] (M) -11
  cAMP %: 22.2971% and -9.038% and -0.05376% and 20.8701% and 7.205% and 16.4135% and 3.836% and -1.905% and 3.566%
mMOR [2]; Log[drug] (M) -13, cAMP inhibition as % of DAMGO
  cAMP %: -0.5682% and 13.1006% and 15.0829% and 7.325% and 4.046% and 5.291% and 0.9156% and 1.033% and -1.949%
mMOR [2]; maximal inhibitory effect on cAMP levels relative to DAMGO
  Emax: 13%
mMOR [2]; n = 3, read-out: EC50
  EC50: 841 nM
mKOR
  Ki: 30.7 ± 11.4 nM
mMOR [3]
  IC50: 320 nM
mMOR [3]; Log[drug] (M) -5
  Antagonist activity at mMOR, raw signal (single replicate values): 0.05136 and 0.05514 and 0.02734 and 0.03399 and 0.05638 and 0.03174 and 0.0604 and 0.04123 and 0.04243
mMOR [3]; Log[drug] (M) -6
  Antagonist activity at mMOR, raw signal (single replicate values): 0.06527 and 0.08059 and 0.08038 and 0.07596 and 0.06694 and 0.07308 and 0.08894 and 0.05009 and 0.07552
mMOR [3]; Log[drug] (M) -7
  Antagonist activity at mMOR, raw signal (single replicate values): 0.171 and 0.1656 and 0.1405 and 0.1722 and 0.164 and 0.1548 and 0.1502 and 0.1538 and 0.167
mMOR [3]; Log[drug] (M) -8
  Antagonist activity at mMOR, raw signal (single replicate values): 0.2056 and 0.1941 and 0.1944 and 0.1853 and 0.1938 and 0.208 and 0.1628 and 0.1712 and 0.1714
mMOR [3]; Log[drug] (M) -9
  Antagonist activity at mMOR, raw signal (single replicate values): 0.1978 and 0.1907 and 0.2036 and 0.185 and 0.2114 and 0.2034 and 0.1755 and 0.1681 and 0.1723
mMOR [3]; Log[drug] (M) -10
  Antagonist activity at mMOR, raw signal (single replicate values): 0.2063 and 0.2294 and 0.2076 and 0.2027 and 0.2013 and 0.2029 and 0.1793 and 0.1909 and 0.175
mMOR [3]; Log[drug] (M) -11
  Antagonist activity at mMOR, raw signal (single replicate values): 0.1963 and 0.2104 and 0.2086 and 0.1881 and 0.2054 and 0.206 and 0.1763 and 0.1632 and 0.1788
mDOR [4]
  Ki: 47.2 ± 2.4 nM
hMOR
  IC50: 920 nM
hKOR; Log [drug](M) -5
  Agonist activity of 7OH analogs at hKOR: 9.026 and -5.895 and 4.248 and 11.9704 and 8.484 and 2.501 and -3.893 and 6.434 and -2.541
hKOR; Log [drug](M) -6
  Agonist activity of 7OH analogs at hKOR: -2.414 and -2.835 and -8.98 and 12.2163 and 1.484 and -5.782 and -0.574 and -6.895 and -9.704
